Laboratory results reported in patent US10941132B2, “Pyrazole derivatives” (HUA MEDICINE (SHANGHAI) Ltd., priority 2016, dated 2021).

Molecular target: T1, recombinant rat mGluR5 (Rattus norvegicus, UniProt P31424)
T1 construct: expressed in transfected cells
Experiment: Functional calcium flux assay (FLIPR), antagonist evaluation against glutamate-evoked [Ca2+]i increase
Assay type: cell-based
Conditions: Table 2; HEK293 cells stably expressing recombinant rat mGluR5; 15 min incubation of test compound, then submaximal glutamate; read-out: IC50 (FLIPR assay)
Procedure, shortened: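 HEK293 cells stably expressing rat mGluR5 were loaded with Fluo-8, preincubated 15 min with compound, then stimulated with submaximal glutamate; [Ca2+]i read by FLIPR. Inhibition relative to glutamate alone was fitted to a 4-parameter logistic to derive IC50.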

T1 sequence (P31424 21-1203): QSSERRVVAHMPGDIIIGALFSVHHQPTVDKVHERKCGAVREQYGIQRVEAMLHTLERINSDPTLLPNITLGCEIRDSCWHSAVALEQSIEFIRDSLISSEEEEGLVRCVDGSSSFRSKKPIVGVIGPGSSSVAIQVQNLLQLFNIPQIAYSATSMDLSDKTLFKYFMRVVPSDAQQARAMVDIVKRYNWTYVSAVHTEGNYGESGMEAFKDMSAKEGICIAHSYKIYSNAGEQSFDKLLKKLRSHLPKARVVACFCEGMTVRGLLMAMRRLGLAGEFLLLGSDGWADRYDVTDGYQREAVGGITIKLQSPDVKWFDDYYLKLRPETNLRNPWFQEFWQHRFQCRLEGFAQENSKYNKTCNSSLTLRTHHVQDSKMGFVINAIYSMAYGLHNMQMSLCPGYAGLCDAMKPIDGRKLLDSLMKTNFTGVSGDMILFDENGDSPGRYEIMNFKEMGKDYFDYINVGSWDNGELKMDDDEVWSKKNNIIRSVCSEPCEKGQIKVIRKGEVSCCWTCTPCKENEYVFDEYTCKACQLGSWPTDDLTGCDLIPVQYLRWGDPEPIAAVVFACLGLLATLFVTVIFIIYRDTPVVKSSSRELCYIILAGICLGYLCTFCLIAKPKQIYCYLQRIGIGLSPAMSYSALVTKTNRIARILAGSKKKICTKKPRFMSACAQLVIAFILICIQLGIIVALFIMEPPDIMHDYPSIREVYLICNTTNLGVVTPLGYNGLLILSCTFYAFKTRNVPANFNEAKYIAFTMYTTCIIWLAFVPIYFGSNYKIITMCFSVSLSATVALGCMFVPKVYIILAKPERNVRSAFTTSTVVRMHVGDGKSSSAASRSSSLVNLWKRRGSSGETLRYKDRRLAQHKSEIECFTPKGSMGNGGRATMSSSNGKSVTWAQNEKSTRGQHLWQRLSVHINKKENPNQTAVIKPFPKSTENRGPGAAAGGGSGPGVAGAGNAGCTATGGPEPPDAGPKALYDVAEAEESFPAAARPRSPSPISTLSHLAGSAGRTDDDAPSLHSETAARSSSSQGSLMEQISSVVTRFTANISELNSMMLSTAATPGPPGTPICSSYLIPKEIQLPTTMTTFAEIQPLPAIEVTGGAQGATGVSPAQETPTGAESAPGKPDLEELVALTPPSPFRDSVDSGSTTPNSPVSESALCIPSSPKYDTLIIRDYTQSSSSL

Cc1cc(C#Cc2cccnc2)nn1-c1cc(F)cc(C#N)c1 [Compound 98, 3-fluoro-5-(5-methyl-3-(pyridin-3-ylethynyl)-1H-pyrazol-1-yl) benzonitrile]
IC50: ≤ 500 nM
